Measured values: publication PMC10067842 (Scientific Reports, 2023)
“And” between values parts separate entries of the source, which are not always exact repeats. Equal entries are not always repeated. “Also recorded” adds a separate entry of the source. Where two headings read alike, the source gives them in different places.

Assays:
[1] = target: T1, ORF3a channel of SARS-CoV-2 (Severe acute respiratory syndrome coronavirus 2, UniProt P0DTC3); experiment: cell-based; conditions: for IC50: whole-cell currents, current differences at −60 mV, read-out: IC50, patch-clamp
T1 sequence (P0DTC3 1-275): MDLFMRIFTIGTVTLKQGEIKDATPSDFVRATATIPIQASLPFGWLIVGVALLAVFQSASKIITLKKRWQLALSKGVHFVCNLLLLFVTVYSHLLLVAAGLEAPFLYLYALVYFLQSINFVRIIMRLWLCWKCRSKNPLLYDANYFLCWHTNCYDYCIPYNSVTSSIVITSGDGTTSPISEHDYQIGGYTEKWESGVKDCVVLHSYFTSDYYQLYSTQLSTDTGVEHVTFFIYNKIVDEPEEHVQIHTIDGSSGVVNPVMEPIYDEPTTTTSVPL

[2] = system: SARS-CoV; conditions: cited from earlier work
[3] = system: HEK293 cells transfected with ORF3a; assay type: cell-based
[4] = target: T2, ORF3a viroporin of SARS-CoV-2 (Severe acute respiratory syndrome coronavirus 2, UniProt P0DTC3); conditions: for activity against ORF3a (ORF3a-induced cytotoxicity): cell viability assay, result in words
[5] = target: T2, ORF3a viroporin of SARS-CoV-2; experiment: cell-based; conditions: IC50, reversing viroporin-induced cell damage
[6] = system: HCoV-OC43; conditions: cited from earlier work
[7] = system: ORF3a of SARS-CoV; conditions: cited from earlier work
[8] = system: ORF3a of SARS-CoV; conditions: Xenopus oocytes; cited from earlier work
[9] = system: HEK293 cells; experiment: MTT cell viability assay of control cells transfected with empty vector; assay type: cell-based; conditions: 5 µM and higher (> 1 µM for ECGC), 10–20 µM
[10] = current–voltage recordings, result in words

| Compound | activity against ORF3a channel in patch-clamp [1, 10] | activity against ORF3a (ORF3a-induced cytotoxicity) [4] | IC50 [1] | IC50 [5] | further results |
| --- | --- | --- | --- | --- | --- |
| CCCCC[C@H](O)CC(=O)CCc1ccc(O)c(OC)c1 [6-gingerol] | inactive | inactive |  |  | activity in the same expression system ([2]; Vero E6 cells): only low activity; morphology of ORF3a-transfected cells after treatment [3]: morphology of dying cells |
| NC12CC3CC(CC(C3)C1)C2 [amantadine, reference compound] |  |  | 0.0045 ± 0.0002 µM | 43.7 ± 11.1 µM | Percentage inhibition from MTT data at the highest inhibitor concentration ([4]; Fig. 4D): 78% |
| O=c1cc(-c2ccc(O)cc2)oc2cc(O)cc(O)c12 [apigenin] |  | inactive |  |  |  |
| COc1cc(/C=C/C(=O)CC(=O)/C=C/c2ccc(O)c(OC)c2)ccc1O [curcumin] |  |  |  |  | activity against ORF3a channel in patch-clamp [1]: confirmed the inhibitory activity; inhibition of viral replication ([2]; SARS-CoV infected Vero E6 cells): effectively inhibited viral replication; Percentage inhibition from MTT data at the highest inhibitor concentration [4]: 72% |
| Cc1cc(O)c2c(c1)C(=O)c1cc(O)cc(O)c1C2=O [emodin] |  |  |  |  | virus release [6]: able to repress virus release; inhibition of ORF3a of SARS-CoV [7]: inhibitor |
| O=c1c(-c2ccc(O)cc2)coc2cc(O)cc(O)c12 [genistein] |  | inactive |  |  | inhibition of ORF3a activity of SARS-CoV [8]: do not |
| O=c1c(O)c(-c2ccc(O)cc2)oc2cc(O)cc(O)c12 [kaempferol] |  | inhibitory activity | 0.0024 ± 0.0005 µM | 5.2 µM and 5.23 µM |  |
| O=C1C[C@@H](c2ccc(O)cc2)Oc2cc(O)cc(O)c21 [naringenin] |  | inactive |  |  | inhibition of ORF3a activity of SARS-CoV [8]: do not |
| COc1ccc(-c2cc(=O)c3c(OC)c(OC)c(OC)c(OC)c3o2)cc1OC [nobiletin] | confirmed the inhibitory activity | inhibitory activity | 0.0018 ± 0.0003 µM | 3.8 ± 0.9 µM | effect on viability of control cells (cytotoxic or proliferative effects) [9]: increased cell proliferation; also recorded: increased cell viability; activity against ORF3a (ORF3a-induced cytotoxicity) ([4]; listed as Nobiletin): potent activity |
| O=c1c(O)c(-c2ccc(O)c(O)c2)oc2cc(O)cc(O)c12 [quercetin] | confirmed the inhibitory activity | inhibitory activity | 0.0039 ± 0.0007 µM | 2.5 ± 0.2 µM | effect on viability of control cells (cytotoxic or proliferative effects) [9]: increased cell proliferation; effect on viability of control cells (cytotoxic or proliferative effects) ([9]; listed as Quercetin): increased cell viability |
| Oc1ccc(/C=C/c2cc(O)cc(O)c2)cc1 [resveratrol] | confirmed the inhibitory activity | inhibitory activity | 0.0015 ± 0.0001 µM | 6.7 µM and 6.73 µM | Percentage inhibition from MTT data at the highest inhibitor concentration ([4]; Fig. 4D): 86% |
| CC(N)C12CC3CC(CC(C3)C1)C2 (stereo not shown) [rimantadine, reference compound] |  |  |  | 4.4 ± 1.3 µM | potency of rimantadine higher than that of amantadine ([1]; patch clamp experiments): approximately fourfold; potency of rimantadine higher than that of amantadine ([4]; cell viability assays): ~ tenfold |
| epigallocatechin gallate [EGCG] | confirmed the inhibitory activity | inhibitory activity | 0.0007 ± 0.0001 µM |  | effect on viability of control cells (cytotoxic or proliferative effects) [9]: increased cell proliferation; also recorded: increased cell viability; morphology of ORF3a-transfected cells after treatment [3]: healthy cells with normal morphology; IC50 ([4]; read-out: IC50, reversing viroporin-induced cell damage): 1.6 µM and 1.56 µM |
